Experimental data published in patent US8969294B2 (Istituto di Recerche di Biologia Molecolare P. Angeletti …, priority 2008, dated 2015).
Values belong to the compound of their own block, whether it stands above or below them. Numbered stars: 1 amine (or outer) side, 2 acyl side, 3 side chain; on linkers, the order of the positions; unused ones are H or OH. Square brackets hold non-standard residues; d marks the D form. Side chains are listed from the residue outwards. Peptide text beside a SMILES is read from it. * marks the point of attachment. γGlu = O=C(O)[C@H](CCC(=O)[*:2])N[*:1]; Palmitoyl = CCCCCCCCCCCCCCCC(=O)*; Aib = CC(C)(N)C(=O)O

Biological target: glucagon receptor (Homo sapiens, UniProt P47871)
Assay: Functional assay, cAMP synthesis: luciferase reporter in HEK293 cells co-transfected with glucagon receptor
[1] = EC50 at the Glucagon receptor, Table 21
[2] = Glucagon Receptor EC50, Table 20
[3] = EC50 at Glucagon Receptor, Table 31

Sequence of glucagon receptor (P47871 26-477): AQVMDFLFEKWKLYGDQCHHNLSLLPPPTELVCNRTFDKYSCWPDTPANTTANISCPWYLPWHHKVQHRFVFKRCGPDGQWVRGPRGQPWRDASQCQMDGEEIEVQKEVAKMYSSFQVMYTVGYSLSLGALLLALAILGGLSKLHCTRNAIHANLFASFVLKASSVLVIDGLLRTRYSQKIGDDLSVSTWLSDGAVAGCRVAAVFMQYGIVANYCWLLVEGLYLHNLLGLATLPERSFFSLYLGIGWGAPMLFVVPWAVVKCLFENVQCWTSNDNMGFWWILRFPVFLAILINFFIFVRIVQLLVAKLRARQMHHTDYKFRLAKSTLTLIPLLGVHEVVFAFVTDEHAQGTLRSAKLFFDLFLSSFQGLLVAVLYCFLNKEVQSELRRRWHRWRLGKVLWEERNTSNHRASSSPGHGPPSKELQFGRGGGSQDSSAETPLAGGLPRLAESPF

EC50 (EC50 at Glucagon Receptor (20% human plasma), Table 28, 20% human plasma): 0.023 nM
EC50 (EC50 at Glucagon Receptor, Table 28): 0.052 nM
EC50 [1]: 0.02 nM
Compound: CCCCCCCCCCCCCCCC(=O)NCCCC[C@H](NC(=O)[C@H](CC(=O)O)NC(=O)[C@H](CO)NC(=O)[C@@H](NC(=O)[C@H](Cc1ccccc1)NC(=O)[C@@H](NC(=O)CNC(=O)[C@H](CCC(N)=O)NC(=O)C(C)(C)NC(=O)[C@@H](N)Cc1c[nH]cn1)[C@@H](C)O)[C@@H](C)O)C(=O)N[C@@H](CO)C(=O)N[C@@H](CCCCN)C(=O)N[C@@H](Cc1ccc(O)cc1)C(=O)N[C@@H](CC(C)C)C(=O)N[C@@H](CC(=O)O)C(=O)NC(C)(C)C(=O)N[C@@H](CCCNC(=N)N)C(=O)N[C@@H](CCCNC(=N)N)C(=O)N[C@@H](C)C(=O)N[C@@H](CCC(N)=O)C(=O)N[C@@H](CC(=O)O)C(=O)N[C@@H](Cc1ccccc1)C(=O)N[C@H](C(=O)N[C@@H](CCC(N)=O)C(=O)N[C@@H](Cc1c[nH]c2ccccc12)C(=O)N[C@@H](CC(C)C)C(=O)N[C@@H](CCSC)C(=O)N[C@@H](CC(N)=O)C(=O)N[C@H](C(N)=O)[C@@H](C)O)C(C)C [AIB2, AIB16, K10(C16) Gluc Amide]

EC50 [2]: 2.06 nM
Compound: CCCCCCCCCCCCCCCC(=O)N[C@@H](Cc1c[nH]c2ccccc12)C(=O)NCCCC[C@H](NC(=O)[C@H](CC(=O)O)NC(=O)[C@H](CO)NC(=O)[C@@H](NC(=O)[C@H](Cc1ccccc1)NC(=O)[C@@H](NC(=O)CNC(=O)[C@H](CCC(N)=O)NC(=O)C(C)(C)NC(=O)[C@@H](N)Cc1c[nH]cn1)[C@@H](C)O)[C@@H](C)O)C(=O)N[C@@H](CO)C(=O)N[C@@H](CCCCN)C(=O)N[C@@H](Cc1ccc(O)cc1)C(=O)N[C@@H](CC(C)C)C(=O)N[C@@H](CC(=O)O)C(=O)NC(C)(C)C(=O)N[C@@H](CCCNC(=N)N)C(=O)N[C@@H](CCCNC(=N)N)C(=O)N[C@@H](C)C(=O)NC(C)(C)C(=O)N[C@@H](CC(=O)O)C(=O)N[C@@H](Cc1ccccc1)C(=O)N[C@H](C(=O)N[C@@H](CS)C(=O)N[C@@H](Cc1c[nH]c2ccccc12)C(=O)N[C@@H](CC(C)C)C(=O)N[C@@H](CCSC)C(=O)N[C@@H](CC(N)=O)C(=O)N[C@H](C(N)=O)[C@@H](C)O)C(C)C (H-H[Aib]QGTFTSDK([Trp-Palmitoyl])SKYLD[Aib]RRA[Aib]DFVCWLMNT-NH2; N-terminus assumed)

EC50 [1]: 0.044 nM
Compound: CCCCCCCCCCCCCC(=O)NCCCC[C@H](NC(=O)[C@H](CC(=O)O)NC(=O)[C@H](CO)NC(=O)[C@@H](NC(=O)[C@H](Cc1ccccc1)NC(=O)[C@@H](NC(=O)CNC(=O)[C@H](CCC(N)=O)NC(=O)C(C)(C)NC(=O)[C@@H](N)Cc1c[nH]cn1)[C@@H](C)O)[C@@H](C)O)C(=O)N[C@@H](CO)C(=O)N[C@@H](CCCCN)C(=O)N[C@@H](Cc1ccc(O)cc1)C(=O)N[C@@H](CC(C)C)C(=O)N[C@@H](CC(=O)O)C(=O)NC(C)(C)C(=O)N[C@@H](CCCNC(=N)N)C(=O)N[C@@H](CCCNC(=N)N)C(=O)N[C@@H](C)C(=O)N[C@@H](CCC(N)=O)C(=O)N[C@@H](CC(=O)O)C(=O)N[C@@H](Cc1ccccc1)C(=O)N[C@H](C(=O)N[C@@H](CCC(N)=O)C(=O)N[C@@H](Cc1c[nH]c2ccccc12)C(=O)N[C@@H](CC(C)C)C(=O)N[C@@H](CCSC)C(=O)N[C@@H](CC(N)=O)C(=O)N[C@H](C(N)=O)[C@@H](C)O)C(C)C [AIB2, AIB16, K10(C14) Gluc Amide]

EC50 [3]: 2.92 nM
Compound: CCCCCCCCCCCCCCCC(=O)N[C@@H](CCC(=O)N[C@@H](CCC(=O)NCCCC[C@H](NC(=O)[C@H](CC(=O)O)NC(=O)[C@H](CO)NC(=O)[C@@H](NC(=O)[C@H](Cc1ccccc1)NC(=O)[C@@H](NC(=O)CNC(=O)[C@H](CCC(=O)O)NC(=O)C(C)(C)NC(=O)[C@@H](N)Cc1c[nH]cn1)[C@@H](C)O)[C@@H](C)O)C(=O)N[C@@H](CO)C(=O)N[C@@H](CCCCN)C(=O)N[C@@H](Cc1ccc(O)cc1)C(=O)N[C@@H](CC(C)C)C(=O)N[C@@H](CC(=O)O)C(=O)N[C@@H](CCC(=O)O)C(=O)N[C@@H](CCC(N)=O)C(=O)N[C@@H](C)C(=O)N[C@@H](C)C(=O)N[C@@H](CCCCN)C(=O)N[C@@H](CCC(=O)O)C(=O)N[C@@H](Cc1ccccc1)C(=O)N[C@H](C(=O)N[C@@H](C)C(=O)N[C@@H](Cc1c[nH]c2ccccc12)C(=O)N[C@@H](CC(C)C)C(=O)N[C@@H](CCSC)C(=O)N[C@@H](CC(N)=O)C(=O)N[C@H](C(N)=O)[C@@H](C)O)[C@@H](C)CC)C(=O)O)C(=O)O [compound 648] (H-H[Aib]EGTFTSDK([γGlu-γGlu-Palmitoyl])SKYLDEQAAKEFIAWLMNT-NH2; N-terminus assumed)

EC50 [3]: 0.007 nM
Compound: CCCCCCCCCCCCCCCC(=O)N[C@@H](CCC(=O)N[C@@H](CCC(=O)NCCCC[C@H](NC(=O)[C@H](CC(=O)O)NC(=O)[C@H](CO)NC(=O)[C@@H](NC(=O)[C@H](Cc1ccccc1)NC(=O)[C@@H](NC(=O)CNC(=O)[C@H](CCC(N)=O)NC(=O)C(C)(C)NC(=O)[C@@H](N)Cc1c[nH]cn1)[C@@H](C)O)[C@@H](C)CC)C(=O)N[C@@H](CO)C(=O)N[C@@H](CCCCN)C(=O)N[C@@H](Cc1ccc(O)cc1)C(=O)N[C@@H](CC(C)C)C(=O)N[C@@H](CC(=O)O)C(=O)N[C@@H](CCC(=O)O)C(=O)N[C@@H](CCC(N)=O)C(=O)N[C@@H](C)C(=O)N[C@@H](C)C(=O)N[C@@H](CCCCN)C(=O)N[C@@H](CCC(=O)O)C(=O)N[C@@H](Cc1ccccc1)C(=O)N[C@H](C(=O)N[C@@H](C)C(=O)N[C@@H](Cc1c[nH]c2ccccc12)C(=O)N[C@@H](CC(C)C)C(=O)N[C@@H](CCSC)C(=O)N[C@@H](CC(N)=O)C(=O)N[C@H](C(N)=O)[C@@H](C)O)[C@@H](C)CC)C(=O)O)C(=O)O [compound 650]

EC50 [2]: 0.25 nM
Compound: CCCCCCCCCCCCCCCC(=O)N[C@@H](Cc1c[nH]c2ccccc12)C(=O)NCCCC[C@H](NC(=O)[C@H](CC(=O)O)NC(=O)[C@H](CO)NC(=O)[C@@H](NC(=O)[C@H](Cc1ccccc1)NC(=O)[C@@H](NC(=O)CNC(=O)[C@H](CCC(N)=O)NC(=O)C(C)(C)NC(=O)[C@@H](N)Cc1c[nH]cn1)[C@@H](C)O)[C@@H](C)O)C(=O)N[C@@H](CO)C(=O)N[C@@H](CCCCN)C(=O)N[C@@H](Cc1ccc(O)cc1)C(=O)N[C@@H](CC(C)C)C(=O)N[C@@H](CC(=O)O)C(=O)NC(C)(C)C(=O)N[C@@H](CCCNC(=N)N)C(=O)N[C@@H](CCCNC(=N)N)C(=O)N[C@@H](C)C(=O)N[C@@H](CCC(N)=O)C(=O)N[C@@H](CC(=O)O)C(=O)N[C@@H](Cc1ccccc1)C(=O)N[C@H](C(=O)N[C@@H](CS)C(=O)N[C@@H](Cc1c[nH]c2ccccc12)C(=O)N[C@@H](CC(C)C)C(=O)N[C@@H](CCSC)C(=O)N[C@@H](CC(N)=O)C(=O)N[C@H](C(N)=O)[C@@H](C)O)C(C)C

EC50 [1]: 0.016 nM
Compound: CCCCCCCCCCCCCCCCCC(=O)NCCCC[C@H](NC(=O)[C@H](CC(=O)O)NC(=O)[C@H](CO)NC(=O)[C@@H](NC(=O)[C@H](Cc1ccccc1)NC(=O)[C@@H](NC(=O)CNC(=O)[C@H](CCC(N)=O)NC(=O)C(C)(C)NC(=O)[C@@H](N)Cc1c[nH]cn1)[C@@H](C)O)[C@@H](C)O)C(=O)N[C@@H](CO)C(=O)N[C@@H](CCCCN)C(=O)N[C@@H](Cc1ccc(O)cc1)C(=O)N[C@@H](CC(C)C)C(=O)N[C@@H](CC(=O)O)C(=O)NC(C)(C)C(=O)N[C@@H](CCCNC(=N)N)C(=O)N[C@@H](CCCNC(=N)N)C(=O)N[C@@H](C)C(=O)N[C@@H](CCC(N)=O)C(=O)N[C@@H](CC(=O)O)C(=O)N[C@@H](Cc1ccccc1)C(=O)N[C@H](C(=O)N[C@@H](CCC(N)=O)C(=O)N[C@@H](Cc1c[nH]c2ccccc12)C(=O)N[C@@H](CC(C)C)C(=O)N[C@@H](CCSC)C(=O)N[C@@H](CC(N)=O)C(=O)N[C@H](C(N)=O)[C@@H](C)O)C(C)C [AIB2, AIB16, K10(C18) Gluc Amide]
